Earlier results on one compound are cited in article PMC4807944 (International Journal of Nanomedicine, 2016).

A word on the Aqueous solubility: it is the dissolved amount per volume that the medium holds. As for `C=CC[C@@H]1/C=C(\C)C[C@H](C)C[C@H](OC)[C@H]2O[C@@](O)(C(=O)C(=O)N3CCCC[C@H]3C(=O)O[C@H](/C(C)=C/[C@@H]3CC[C@@H](O)[C@H](OC)C3)[C@H](C)[C@@H](O)CC1=O)[C@H](C)C[C@@H]2OC` [FK506, Tacrolimus], the Aqueous solubility was 1 to 2 µg/mL.
